According to patent US20250223297A1, “NOVEL RAPAMYCIN DERIVATIVES” (Novartis AG, priority 2017, published 2025):
pIC50, pKd: −log10 of the molar value.

What was measured:
[1] = tested on: mTORC1 signaling (pS6 Ser240/244) in MEF TSC1−/− cells; experiment: MEF TSC1-/- cell based assay for rapalog potency (pS6); set-up: species or system mouse; conditions: Mus musculus, 2 h, 2 h treatment, average from multiple assays
Text: Potency of mTOR inhibitors may also be determined using a MEF TSC1−/− cell-based assay. MEF TSC1−/− cells are Mouse Embryonic Fibroblasts deficient in the Tuberous sclerosis protein, TSC1, which negatively regulates mTORC1 signaling. Thus, the deficiency of TSC1 induces constitutive mTORC1 activation, resulting in phosphorylation (activation) of the downstream proteins in the mTORC1 signaling pathways. This cell-based assay is used to measure inhibition (de-phosphorylation) of the mTORC1 signaling components S6 and 4EBP1, by rapalogs or other mTOR inhibitors.
The assay is typically carried out as follows: MEF TSC1−/− cells are plated on Poly-D-lysine coated 384 well Griener clear bottom plates and incubated overnight at 37° C., 5% CO2. […] Cells are fixed with 4% paraformaldehyde for 30 min and washed 5 times with TBS-EDTA followed by immuno-staining with florescent tag labeled antibodies for pS6 and p4EBP1. Nuclei are visualized with Hoechst staining. Cells are imaged using respective florescence channels and the potency of mTOR inhibitors is defined by pS6 IC50 (nM).
Cell-based assay for rapalog potency determination. Rapalog potency was determined using MEF TSC1−/− cell based assay. MEF TSC1−/− cells are Mouse Embryonic Fibroblasts deficient in Tuberous sclerosis protein-TSC1, which negatively regulates mTORC1 signaling and thus display constitutive mTORC1 activation, resulting in phosphorylation (activation) of downstream molecules. This cell-based assay is used to measure inhibition (de-phosphorylation) of S6 and 4EBP1 by rapalogs or other mTOR inhibitors.
MEF TSC1−/− cells were plated on Poly-D-lysine coated 384 well Griener clear bottom plates and incubated overnight at 37° C., 5% CO2. […] Nuclei were visualized with Hoechst (ThermoFisher Scientific #H3570) staining. Cells were imaged (InCell 600) using respective fluorescence channels and the potency of mTOR inhibitors was defined by pS6 IC50 (nM).
In vitro potency of mTOR inhibitors was defined by pS6 IC50 (nM) in MEF TSC1−/− cells.
IC50 values are calculated as the average from multiple assays.

FKBP12 = FKBP12 (Homo sapiens (Human), UniProt P62942); experiment: SPR assay, binding affinity to FKBP12; conditions: single-cycle kinetics
FKBP12, sequence (P62942 whole entry, the tested form may be a part): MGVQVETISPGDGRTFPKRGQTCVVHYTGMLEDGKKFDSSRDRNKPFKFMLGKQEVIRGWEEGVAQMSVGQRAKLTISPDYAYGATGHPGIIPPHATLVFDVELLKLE
Description: (§1) SPR Assay to Determine Binding Affinity to FK506-Binding Proteins (FKBP). N-terminal avi-his6 tagged FKBP fusions to FKBP12, FKBP51 and FKBP52 were expressed in E. coli and purified using standard chromatography. Each protein was subsequently immobilized on a streptavidin chip in a Biacore 8K SPR instrument (GE Healthcare). Using single-cycle kinetics, compound titrations were flowed at 45 uL/min over each surface using 2-minute association and 30-minute dissociation phases in a buffer containing 50 mM Tris pH 7.5/150 mM NaCl/0.01% Tween 20/1 mM DTT/2% DMSO. The data was fit using low molecular weight (LMW) single-cycle kinetics. The equilibrium dissociation constants (KD) are reported. […]

FKBP52 = FKBP52 (Homo sapiens (Human), UniProt Q02790); experiment: SPR assay, binding affinity to FKBP52; conditions: single-cycle kinetics
FKBP52, sequence (Q02790 whole entry): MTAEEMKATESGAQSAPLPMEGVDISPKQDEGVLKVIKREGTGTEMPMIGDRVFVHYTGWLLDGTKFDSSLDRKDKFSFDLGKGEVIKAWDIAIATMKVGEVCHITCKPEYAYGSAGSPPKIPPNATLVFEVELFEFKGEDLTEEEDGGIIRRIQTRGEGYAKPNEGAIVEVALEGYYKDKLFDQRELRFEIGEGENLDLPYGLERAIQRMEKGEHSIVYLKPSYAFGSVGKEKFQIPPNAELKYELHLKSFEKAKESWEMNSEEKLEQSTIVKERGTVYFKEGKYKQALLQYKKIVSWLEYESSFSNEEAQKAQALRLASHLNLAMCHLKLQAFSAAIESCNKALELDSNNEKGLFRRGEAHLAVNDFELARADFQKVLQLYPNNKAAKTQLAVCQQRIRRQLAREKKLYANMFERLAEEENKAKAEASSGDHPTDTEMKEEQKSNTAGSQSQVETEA
Description: as §1

[2] = Comparative blood and brain concentrations in rats after single p.o. dose; type: in vivo; conditions: rat, single p.o. dose 3, 10, 30 mg/kg; 3 h and 24 h
Description: Concentrations were determined using HPLC/Mass spectrometry. […] Blood and brain tissues were collected at 3 hours (h) and 24 h following treatment to determine concentrations of the compounds.

[3] = tested on: mTORC1 pathway (S6 phosphorylation) in rat liver; experiment: Inhibition of mTORC1 pathway in rat liver (p-S6/t-S6 immunoblot); type: in vivo
Description: Protein extraction and immunoblotting. For protein extraction, snap frozen tissues were lysed in MSD Lysis Buffer (MSD, Rockville, Maryland), supplemented with complete EDTA free protease inhibitor and PhosSTOP phosphatase inhibitor tablets (Roche, Manheim, Germany), and centrifuged at 13,000g for 20 min at 4° C. The resultant supernatant was used for immunoblotting. Protein was quantified with BCA protein assay (Thermo Scientific, MA). Samples were resolved on 4-20% Criterion™ TGX™ Precast Midi Protein gels (Bio-Rad, CA) and transferred onto nitrocellulose membranes (Bio-Rad, CA) using a Trans Turbo Blot system (Bio-Rad, CA). Immunoblotting was performed with antibodies to p-S6 and t-S6 from Cell Signaling Technologies (all 1:1000 in TBS-T with 5% BSA). The ‘p’ and ‘t’ prefixes signify ‘phosphorylated’ and ‘total’ forms respectively. HRP-conjugated secondary antibodies against rabbit (#7074) were from Cell Signaling Technologies, MA. […] Resultant digital images were converted into a TIFF format and quantified using ImageJ software.
The ability of Example 2 to inhibit mTORC1 pathway in vivo was determined in rats aged 4 months (FIG. 5A-5D).

[4] = tested on: S6K1 (Thr389) phosphorylation (mTORC1 activity) in WT 293T cells; experiment: S6K1 (Thr389) phosphorylation ELISA in wild-type 293T cells; type: cell-based; conditions: 2 h, relative to DMSO
Description: WT, FKBP12 knock-down and FKBP12 knock-out 293T cells were plated at a density of 30,000 cells per well in poly-D-Lysine coated 96-well plates (Corning, #354461) in Dulbecco's modified Eagle's medium (ThermoFisher, #11995-065) supplemented with 10% fetal bovine serum (ThermoFisher, #16140-071). Cells were incubated at 37° C., 5% CO2 for 48 hours until they reached ˜80% confluence. […] Media supplemented with blank Dimethyl sulfoxide (DMSO) was used as a control for both compounds. Phosphorylated amounts of S6K1 (Thr389) were detected by a sandwich ELISA kit (Cell signaling, #7063C) following the manufacture's protocol.
S6K1 is a downstream target of mTORC1 and phosphorylation of its rapalog-sensitive Thr389 site is used as a functional readout of mTORC1 activity. Lee, C. H., Inoki, K. and Guan, K. L. (2007). mTOR pathway as a target in […]. Annu. Rev. Pharmacol. Toxicol. 47. 443-467. […] In FKBP12 knock-out cells. […] Such specificity of Example 2 to FKBP12 may facilitate targeting cells and tissues with relatively high levels of FKBP12 expression, while avoiding (or minimizing) side effects in the tissues where FKBP12 is weakly expressed.

[5] = tested on: S6K1 (Thr389) phosphorylation (mTORC1 activity) in FKBP12 knock-down 293T cells; experiment: S6K1 (Thr389) phosphorylation ELISA in FKBP12 knock-down 293T cells; type: cell-based; conditions: 2 h, relative to DMSO
[6] = tested on: S6K1 (Thr389) phosphorylation (mTORC1 activity) in FKBP12 knock-out 293T cells; experiment: S6K1 (Thr389) phosphorylation ELISA in FKBP12 knock-out 293T cells; type: cell-based; conditions: 2 h, relative to DMSO

CO[C@@H]1C[C@H](C[C@@H](C)[C@@H]2CC[C@H](C)/C=C(\C)[C@@H](O)[C@@H](OC)C(=O)[C@H](C)C[C@H](C)/C=C/C=C/C=C(\C)[C@H](N3CCCS3(=O)=O)C[C@@H]3CC[C@@H](C)[C@@](O)(O3)C(=O)C(=O)N3CCCC[C@H]3C(=O)O2)CC[C@H]1O [Example 2, (R)-C16-(1,1-dioxidoisothiazolidin-2-yl)-C32-deoxo-rapamycin]
pIC50 [1]: 9.56
pKd (FKBP12): 7.80
pKd (FKBP52): < 5.00
blood concentrations compared with RAD001 [2]: higher
brain concentrations compared with RAD001 [2]: higher
S6 inactivation in rat liver, 24 h ([3]; 24 h following dosing with 10 (trend p=0.06) and 30 mg/kg): remained inactivated
de-phosphorylation (inactivation) of S6 in rat liver, 3 h ([3]; single p.o. dose 3, 10 and 30 mg/kg, three hours following dosing, vs vehicle): significant de-phosphorylation
inhibition of S6K1 (Thr389) [4]: ~80%
maximum inhibition of S6K1 (Thr389) [5]: ~40%
inhibition of S6K1 (Thr389) phosphorylation [6]: failed to inhibit
